According to patent US20060242728A1, “Chemically-inducible promotors for the expression of proteins in plants” (priority 2003, published 2006):

Legend:
NIMIN-2 promoter = assay: GUS reporter gene activity in leaf discs of transgenic lines floated on inducer; type: cell-based, Arabidopsis thaliana; settings: leaf discs floated on 1 mM SA or 140 mg/l Bion, 3 days, protein extracts; FIG. 3
Description: (§1) For characterizing the influence of chemicals on the activity of the NIMIN promoters, leaf discs were punched from the transgenic lines NIMIN1-GUS and NIMIN2-GUS. As a control, PR-1a promoter fusions were used. The leaf discs were floated on 1 mM SA, 140 mg/l Bion (a functional analogue to salicylic acid) or water. After 3 days, protein extracts were prepared and the activity of the GUS reporter gene in the extracts was assayed. The resulting reporter gene activities were 5 times higher In the NIMIN-2 promoter fusions than In PR-1a promoter fusions (cf. FIG. 3). Further, leaf discs from the transgenic lines NIMIN1-GUS and NIMIN2-GUS were incubated with different salicylic acid concentrations.

NIMIN-1 mRNA = settings: cited from earlier work
NIMIN-2 mRNA = settings: cited from earlier work
NIMIN promoters = assay: GUS reporter gene activity in leaf discs incubated with different salicylic acid concentrations; type: cell-based, Arabidopsis thaliana; settings: leaf discs of NIMIN1-GUS and NIMIN2-GUS lines; FIGS. 4 and 5
Description: as §1

SMILES	reporter gene (GUS) activity in NIMIN-2 promoter fusions relative to PR-1a promoter fusions (NIMIN-2 promoter)	inducibility of NIMIN-1 mRNA (NIMIN-1 mRNA)	inducibility of NIMIN-2 mRNA (NIMIN-2 mRNA)	activity of the NIMIN promoters versus inducer concentration (NIMIN promoters)
CSC(=O)c1cccc2nnsc12 [Bion]	5 times	inducible	inducible	–
O=C(O)c1ccccc1O [salicylic acid]	5 times	inducible	inducible	depends on the salicyclic acid concentration
